This is an account of results in ChEMBL document CHEMBL1201862, “PubChem BioAssay data set” (2004).

SMILES strings stand for the structures. Activity calls are given as the source filed them.

The target of one assay is T1, Streptokinase A (Streptococcus pyogenes serotype M1, UniProt P10520).
T1 sequence (P10520 whole entry): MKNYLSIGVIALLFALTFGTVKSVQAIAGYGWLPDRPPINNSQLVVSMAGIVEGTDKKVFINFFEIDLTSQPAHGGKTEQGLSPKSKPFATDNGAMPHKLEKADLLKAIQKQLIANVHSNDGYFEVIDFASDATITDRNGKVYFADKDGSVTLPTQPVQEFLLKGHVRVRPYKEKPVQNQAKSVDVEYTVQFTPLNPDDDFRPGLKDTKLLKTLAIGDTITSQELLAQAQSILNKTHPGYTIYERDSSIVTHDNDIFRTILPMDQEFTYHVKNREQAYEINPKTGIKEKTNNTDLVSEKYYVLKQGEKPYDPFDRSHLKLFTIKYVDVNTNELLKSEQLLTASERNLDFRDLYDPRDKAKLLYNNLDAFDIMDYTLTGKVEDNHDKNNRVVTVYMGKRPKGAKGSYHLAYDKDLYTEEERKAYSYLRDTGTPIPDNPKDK
The assay is described as follows: S. pyogenes streptokinase expression inhibitors, potency, dose response, plasminogen activation absorbance, OD405 (AID 1914).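 Further: secreted streptokinase activity via plasminogen activation per viability signal from cell pellet.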 The format is functional, Streptococcus pyogenes M1 GAS.

Assay [1] concerns the target Serine/threonine-protein phosphatase (Candida dubliniensis (strain CD36 / CBS 7987 / NCPF 3949 / NRRLY-17841) (Yeast), UniProt B9W6M3). The assay is described as follows: calcineurin pathway inhibitors in yeast reporter, dose response, S. cerevisiae, CDRE-lacZ, luminescence, secondary (AID 2388).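 Further: yeast reporter cells carrying a calcineurin-responsive lacZ construct stimulated with calcium chloride; luminescent beta-galactosidase reporter signal in whole cells rather than isolated phosphatase activity; potency for inhibition where a drop in reporter signal means calcineurin blockade.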 Format: functional, cell-based.
Assay [2] in a line: Counterscreen for AddAB inhibitors: absorbance-based bacterial cell-based high throughput dose response assay for inhibitors of bacterial viability. [Related pubchem assays (depositor defined):AID435030, AID449728, AID449731, AID488942, AID488955, AID488956]. Format: functional. Background: The purpose of a counterscreen is to sort out artefacts and off-target activity.
Assay [3] can be described thus: Shn3 3'UTR reporter inhibitors, dose response, cell-based, Clone20 osteoblasts, firefly luciferase, cherry-picked (AID 624132).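 Further: firefly luciferase luminescence from reporter carrying the Shn3 3'UTR in osteoblasts.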 Format: functional.
A short description of assay [4]: HepG2 cell cytotoxicity, dose response, cytotoxicity control for Shn3 inhibitor project, CellTiter-Glo, cherry-picked (AID 624134). The format is functional, cell-based. For orientation: Cellular ATP, detected with luciferase, serves as a proxy for viable cell number.
The nature of assay [5]: control 3'UTR Renilla luciferase suppression, dose response, counter-screen for Shn3 inhibitor project, cell-based, Clone20-Shn3RL, cherry-picked (AID 624133). The format is functional.
Assay [6] deals with Megakaryocyte-associated tyrosine-protein kinase (Homo sapiens, UniProt P42679). The format is functional.
The target in assay [7] is Protein kinase C zeta type (Homo sapiens, UniProt Q05513). Format: functional.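 Further: measured as one member of a broad kinase profiling panel.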
For assay [8], the target named is Phosphorylase b kinase gamma catalytic chain, liver/testis isoform (Homo sapiens, UniProt P15735). Format: functional.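 Further: PHKG2 measured as one member of a kinome-wide kinase panel.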
Chain of Phosphorylase b kinase gamma catalytic chain, liver/testis isoform (P15735 whole entry, canonical isoform): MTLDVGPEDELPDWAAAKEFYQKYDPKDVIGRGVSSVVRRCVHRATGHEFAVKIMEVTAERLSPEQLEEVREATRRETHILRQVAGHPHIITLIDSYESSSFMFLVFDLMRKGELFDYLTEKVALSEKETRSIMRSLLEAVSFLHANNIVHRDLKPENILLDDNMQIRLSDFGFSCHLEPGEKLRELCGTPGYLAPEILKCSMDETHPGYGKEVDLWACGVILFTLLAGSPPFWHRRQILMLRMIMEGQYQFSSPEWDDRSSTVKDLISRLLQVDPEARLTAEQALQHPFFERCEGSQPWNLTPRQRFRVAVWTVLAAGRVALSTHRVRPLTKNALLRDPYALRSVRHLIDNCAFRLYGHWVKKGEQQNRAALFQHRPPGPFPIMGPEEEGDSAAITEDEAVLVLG
The target in assay [9] is Protein kinase C delta type (Homo sapiens, UniProt Q05655). The format is functional.
Chain of Protein kinase C delta type (Q05655 whole entry): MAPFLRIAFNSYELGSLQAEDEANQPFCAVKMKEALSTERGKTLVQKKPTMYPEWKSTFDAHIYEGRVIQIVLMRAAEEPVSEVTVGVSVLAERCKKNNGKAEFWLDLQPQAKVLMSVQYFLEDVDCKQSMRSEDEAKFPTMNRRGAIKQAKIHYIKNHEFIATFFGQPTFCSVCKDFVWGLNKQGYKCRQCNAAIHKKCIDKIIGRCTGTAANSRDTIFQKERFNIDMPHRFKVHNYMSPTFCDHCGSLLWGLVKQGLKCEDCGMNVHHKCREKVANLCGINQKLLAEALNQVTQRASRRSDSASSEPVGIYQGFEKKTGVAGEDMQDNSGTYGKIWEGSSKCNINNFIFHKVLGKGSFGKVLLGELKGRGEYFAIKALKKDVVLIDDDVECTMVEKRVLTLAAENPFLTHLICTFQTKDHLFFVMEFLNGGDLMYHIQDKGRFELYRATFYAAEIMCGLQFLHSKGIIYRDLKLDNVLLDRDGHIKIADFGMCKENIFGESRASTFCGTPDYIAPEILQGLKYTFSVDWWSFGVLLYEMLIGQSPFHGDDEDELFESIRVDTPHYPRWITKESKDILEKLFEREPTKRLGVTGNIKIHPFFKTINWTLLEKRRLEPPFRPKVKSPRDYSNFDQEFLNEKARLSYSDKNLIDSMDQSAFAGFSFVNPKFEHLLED
Assay [10] deals with Ribosomal protein S6 kinase beta-1 (Homo sapiens, UniProt P23443). Format: functional.
Assay [11] concerns the target Testis-specific serine/threonine-protein kinase 2 (Homo sapiens, UniProt Q96PF2). Format: functional.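 Further: part of the Navigating the Kinome panel, target entry STK22B.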
Assay [12] deals with Casein kinase II subunit alpha (Homo sapiens, UniProt P68400). Format: functional.
The target in assay [13] is Casein kinase I isoform gamma-1 (Homo sapiens, UniProt Q9HCP0). The format is functional.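 Further: measured as the CSNK1G1 member of a kinome profiling panel.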
Chain of Casein kinase I isoform gamma-1 (Q9HCP0 whole entry, canonical isoform): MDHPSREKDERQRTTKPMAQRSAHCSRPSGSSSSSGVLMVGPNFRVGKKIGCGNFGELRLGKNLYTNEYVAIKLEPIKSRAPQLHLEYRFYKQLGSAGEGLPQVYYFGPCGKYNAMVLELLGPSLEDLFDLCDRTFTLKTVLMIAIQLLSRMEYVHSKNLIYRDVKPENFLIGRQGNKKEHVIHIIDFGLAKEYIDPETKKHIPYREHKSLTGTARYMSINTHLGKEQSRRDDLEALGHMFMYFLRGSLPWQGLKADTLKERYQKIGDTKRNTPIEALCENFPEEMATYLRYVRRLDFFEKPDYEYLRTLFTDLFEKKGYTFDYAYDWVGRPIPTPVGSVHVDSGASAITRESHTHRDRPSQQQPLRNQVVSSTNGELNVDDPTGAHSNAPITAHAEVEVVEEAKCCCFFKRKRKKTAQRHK
The target in another assay is Insulin receptor (Homo sapiens, UniProt P06213). Format: functional.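 Further: insulin receptor kinase tested as one member of a kinome-wide kinase panel.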
Chain of Insulin receptor (P06213 28-758 limits assumed): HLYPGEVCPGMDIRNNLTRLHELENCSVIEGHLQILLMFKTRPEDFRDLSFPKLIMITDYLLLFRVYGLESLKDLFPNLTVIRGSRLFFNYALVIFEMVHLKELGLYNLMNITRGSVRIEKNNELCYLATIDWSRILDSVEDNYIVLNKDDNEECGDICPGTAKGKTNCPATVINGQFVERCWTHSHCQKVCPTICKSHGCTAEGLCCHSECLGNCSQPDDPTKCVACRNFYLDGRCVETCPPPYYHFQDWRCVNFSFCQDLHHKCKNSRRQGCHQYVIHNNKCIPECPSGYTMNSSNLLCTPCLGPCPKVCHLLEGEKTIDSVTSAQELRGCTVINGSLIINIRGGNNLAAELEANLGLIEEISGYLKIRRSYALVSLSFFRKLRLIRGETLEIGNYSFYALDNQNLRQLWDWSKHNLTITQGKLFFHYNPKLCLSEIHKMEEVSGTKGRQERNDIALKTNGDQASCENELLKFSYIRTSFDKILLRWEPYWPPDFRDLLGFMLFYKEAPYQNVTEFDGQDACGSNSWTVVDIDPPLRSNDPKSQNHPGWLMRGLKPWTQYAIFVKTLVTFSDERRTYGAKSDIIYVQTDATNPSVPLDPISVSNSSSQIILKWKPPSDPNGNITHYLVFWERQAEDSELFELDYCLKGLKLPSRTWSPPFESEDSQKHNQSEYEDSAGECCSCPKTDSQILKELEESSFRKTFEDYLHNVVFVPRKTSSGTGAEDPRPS
Chain of Insulin receptor (P06213 763-1382 limits assumed): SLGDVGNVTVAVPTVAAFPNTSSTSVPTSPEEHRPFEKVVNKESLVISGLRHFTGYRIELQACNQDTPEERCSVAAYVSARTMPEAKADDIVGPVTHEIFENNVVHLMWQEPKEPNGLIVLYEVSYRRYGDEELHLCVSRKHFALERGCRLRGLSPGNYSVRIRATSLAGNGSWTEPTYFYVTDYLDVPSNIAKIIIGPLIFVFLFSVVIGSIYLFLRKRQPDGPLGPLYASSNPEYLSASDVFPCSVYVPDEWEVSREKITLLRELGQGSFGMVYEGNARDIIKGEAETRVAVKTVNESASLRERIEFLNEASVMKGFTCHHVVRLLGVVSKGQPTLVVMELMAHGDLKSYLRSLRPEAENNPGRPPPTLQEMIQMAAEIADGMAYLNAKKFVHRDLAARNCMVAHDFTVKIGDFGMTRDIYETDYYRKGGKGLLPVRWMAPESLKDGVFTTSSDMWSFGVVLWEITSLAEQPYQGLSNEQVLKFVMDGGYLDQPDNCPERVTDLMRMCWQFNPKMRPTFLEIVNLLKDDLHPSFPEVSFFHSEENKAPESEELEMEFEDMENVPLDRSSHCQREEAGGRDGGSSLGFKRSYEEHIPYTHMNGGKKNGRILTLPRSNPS
Assay [14] has as its target Serine/threonine-protein kinase pim-3 (Homo sapiens, UniProt Q86V86). Format: functional.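 Further: value obtained as one member of a broad kinase panel profiling effort.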
The target of assay [15] is Non-receptor tyrosine-protein kinase TYK2 (Homo sapiens, UniProt P29597). The format is functional.
The target in assay [16] is Protein kinase C gamma type (Homo sapiens, UniProt P05129). Format: functional.
Assay [17] addresses Dual specificity tyrosine-phosphorylation-regulated kinase 3 (Homo sapiens, UniProt O43781). Format: functional.
Assay [18] addresses Receptor tyrosine-protein kinase erbB-2 (Homo sapiens, UniProt P04626). The assay is described as follows: Navigating the Kinome. Panel member name: ERBB2. The format is functional.
The target of assay [19] is MAP kinase-activated protein kinase 3 (Homo sapiens, UniProt Q16644). The format is functional.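 Further: value comes from a kinome-wide profiling panel in which MAPKAPK3 is one of the panel members.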
Chain of MAP kinase-activated protein kinase 3 (Q16644 whole entry): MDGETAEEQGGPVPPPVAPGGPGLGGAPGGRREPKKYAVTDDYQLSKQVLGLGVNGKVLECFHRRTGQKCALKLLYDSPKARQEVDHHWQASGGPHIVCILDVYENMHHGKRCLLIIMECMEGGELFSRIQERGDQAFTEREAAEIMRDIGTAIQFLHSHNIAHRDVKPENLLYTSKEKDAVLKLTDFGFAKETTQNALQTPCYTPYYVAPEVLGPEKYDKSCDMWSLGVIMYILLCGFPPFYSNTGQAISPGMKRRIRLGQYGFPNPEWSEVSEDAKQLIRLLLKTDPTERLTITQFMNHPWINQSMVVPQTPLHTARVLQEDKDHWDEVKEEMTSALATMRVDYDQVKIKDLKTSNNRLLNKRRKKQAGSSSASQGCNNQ
For assay [20], the target named is Protein kinase C iota type (Homo sapiens, UniProt P41743). Format: functional.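 Further: measured within a kinome-wide kinase panel, PRKCI as panel member.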
The target in assay [21] is Tyrosine-protein kinase Fer (Homo sapiens, UniProt P16591). Format: functional.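 Further: FER tested as one member of a kinome panel.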
Chain of Tyrosine-protein kinase Fer (P16591 whole entry): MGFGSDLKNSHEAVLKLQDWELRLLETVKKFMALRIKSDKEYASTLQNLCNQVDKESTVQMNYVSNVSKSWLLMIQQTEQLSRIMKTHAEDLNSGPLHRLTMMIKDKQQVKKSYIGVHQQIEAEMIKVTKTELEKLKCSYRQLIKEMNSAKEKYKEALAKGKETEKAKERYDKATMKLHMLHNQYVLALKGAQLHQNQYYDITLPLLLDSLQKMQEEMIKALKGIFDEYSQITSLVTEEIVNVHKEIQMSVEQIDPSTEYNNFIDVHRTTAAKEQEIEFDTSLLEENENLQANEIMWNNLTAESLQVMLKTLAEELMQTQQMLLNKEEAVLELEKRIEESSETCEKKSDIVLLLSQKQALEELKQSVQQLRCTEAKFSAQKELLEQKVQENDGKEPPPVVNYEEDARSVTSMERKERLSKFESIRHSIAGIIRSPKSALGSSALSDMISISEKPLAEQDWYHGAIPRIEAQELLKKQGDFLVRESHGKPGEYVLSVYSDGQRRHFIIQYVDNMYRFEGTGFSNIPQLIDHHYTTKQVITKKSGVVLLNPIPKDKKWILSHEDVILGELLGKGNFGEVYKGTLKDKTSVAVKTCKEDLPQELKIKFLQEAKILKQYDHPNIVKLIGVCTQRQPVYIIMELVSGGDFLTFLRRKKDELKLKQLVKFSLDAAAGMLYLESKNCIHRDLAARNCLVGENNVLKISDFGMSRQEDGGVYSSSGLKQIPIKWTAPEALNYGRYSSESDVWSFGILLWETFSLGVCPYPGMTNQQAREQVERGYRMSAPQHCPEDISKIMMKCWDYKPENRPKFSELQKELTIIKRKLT
Assay [22] deals with STE20-like serine/threonine-protein kinase (Homo sapiens, UniProt Q9H2G2). The format is functional.
Assay [23] has as its target Serine/threonine-protein kinase MRCK alpha (Homo sapiens, UniProt Q5VT25). The format is functional.
In assay [24] the target is T2, Replicative DNA helicase DnaB (Mycobacterium tuberculosis, UniProt P9WMR3).
T2 sequence (P9WMR3 whole entry): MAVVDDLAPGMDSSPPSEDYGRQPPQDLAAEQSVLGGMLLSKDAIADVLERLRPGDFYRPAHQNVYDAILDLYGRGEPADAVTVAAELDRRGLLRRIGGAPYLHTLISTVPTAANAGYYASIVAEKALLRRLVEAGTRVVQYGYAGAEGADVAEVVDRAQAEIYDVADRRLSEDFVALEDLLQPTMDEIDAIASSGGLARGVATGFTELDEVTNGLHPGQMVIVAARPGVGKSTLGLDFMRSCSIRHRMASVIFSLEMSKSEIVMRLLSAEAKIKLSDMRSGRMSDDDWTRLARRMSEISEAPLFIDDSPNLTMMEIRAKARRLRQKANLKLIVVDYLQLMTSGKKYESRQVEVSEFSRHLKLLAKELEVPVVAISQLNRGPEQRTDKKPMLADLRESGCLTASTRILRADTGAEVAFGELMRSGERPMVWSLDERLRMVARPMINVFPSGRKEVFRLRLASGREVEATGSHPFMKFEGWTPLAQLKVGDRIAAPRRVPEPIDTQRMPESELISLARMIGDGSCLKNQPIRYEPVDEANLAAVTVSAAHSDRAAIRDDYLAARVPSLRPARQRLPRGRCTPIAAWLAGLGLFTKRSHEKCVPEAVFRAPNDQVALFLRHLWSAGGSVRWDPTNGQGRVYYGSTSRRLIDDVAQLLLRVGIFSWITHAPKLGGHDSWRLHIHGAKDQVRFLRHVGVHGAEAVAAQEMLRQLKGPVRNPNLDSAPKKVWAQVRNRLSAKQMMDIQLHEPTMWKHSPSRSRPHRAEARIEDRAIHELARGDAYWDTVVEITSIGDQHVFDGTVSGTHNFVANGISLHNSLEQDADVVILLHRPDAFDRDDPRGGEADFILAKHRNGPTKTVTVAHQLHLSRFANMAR
The assay is described as follows: DnaB intein splicing inhibitors, dose response, biochemical, cell-free fluorescence (AID 449749). Format: functional.

Chain of Testis-specific serine/threonine-protein kinase 2 (Q96PF2 whole entry): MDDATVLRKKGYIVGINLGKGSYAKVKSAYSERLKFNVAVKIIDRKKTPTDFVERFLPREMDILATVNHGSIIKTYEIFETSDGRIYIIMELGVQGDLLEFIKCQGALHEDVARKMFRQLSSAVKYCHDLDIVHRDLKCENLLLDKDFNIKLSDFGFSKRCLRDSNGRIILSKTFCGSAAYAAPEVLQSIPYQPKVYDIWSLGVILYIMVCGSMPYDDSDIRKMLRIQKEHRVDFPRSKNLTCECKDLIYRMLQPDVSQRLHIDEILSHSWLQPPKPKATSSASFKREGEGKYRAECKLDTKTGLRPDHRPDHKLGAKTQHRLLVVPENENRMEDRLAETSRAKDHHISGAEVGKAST
Chain of Dual specificity tyrosine-phosphorylation-regulated kinase 3 (O43781 whole entry): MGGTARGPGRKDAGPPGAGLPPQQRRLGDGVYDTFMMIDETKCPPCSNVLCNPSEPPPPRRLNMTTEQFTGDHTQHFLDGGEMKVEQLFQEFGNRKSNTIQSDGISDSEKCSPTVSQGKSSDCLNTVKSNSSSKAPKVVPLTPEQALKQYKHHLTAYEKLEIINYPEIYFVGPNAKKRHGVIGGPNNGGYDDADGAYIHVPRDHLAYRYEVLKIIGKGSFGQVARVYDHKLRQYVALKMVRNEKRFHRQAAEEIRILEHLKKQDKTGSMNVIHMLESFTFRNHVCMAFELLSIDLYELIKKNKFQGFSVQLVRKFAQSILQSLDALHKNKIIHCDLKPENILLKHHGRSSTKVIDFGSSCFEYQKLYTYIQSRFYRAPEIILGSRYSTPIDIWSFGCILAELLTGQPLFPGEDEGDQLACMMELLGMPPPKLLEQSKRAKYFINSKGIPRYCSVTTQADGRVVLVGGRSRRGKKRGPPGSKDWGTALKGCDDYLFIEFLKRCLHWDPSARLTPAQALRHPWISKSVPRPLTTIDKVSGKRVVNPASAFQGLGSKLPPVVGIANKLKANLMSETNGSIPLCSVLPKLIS

In general, EC50 refers to the concentration needed to bring the measured effect to its halfway point. The term IC50 denotes the point on the concentration scale where inhibition reaches its midpoint. By AC50 is commonly meant the concentration at which the activity in the assay is half-maximal. As for `Cc1cc(NC(c2ccc(Cl)cc2)c2ccc3cccnc3c2O)no1` (stereo unspecified), the EC50 on Streptokinase A was > 150000 nM (not active); in [1], > 180000 nM (inactive). Moreover, the IC50 in [2] is > 119000 nM (inactive). The AC50 was 1050 nM (active) in assay [3], 1270 nM (active) in [4] and 677 nM (active) in [5].

One may read the Ki as the equilibrium dissociation constant of an inhibitor or competing ligand from its target. On to `CS(=O)(=O)N(Cc1ccc2[nH]c(=O)c3cccn3c2c1)C1CC1`, for which the Ki in assay [6] is 79.4 nM (active); in assay [7] it was > 7940 nM (inactive); in assay [8], 2000 nM (active); in [9], > 7940 nM (inactive); in assay [10], > 6310 nM (inactive); in assay [11] it was 39.8 nM (active). The Ki in assay [12] was 15.8 nM (active); in [13], 631 nM (active); on Insulin receptor it was > 5010 nM (inactive); in assay [14], 2510 nM (active); in assay [15], > 2000 nM (inactive); in assay [16], 1260 nM (active). The Ki in [17] was 158 nM (active); in assay [18], 31.6 nM (active); in [19], 50.1 nM (active); in assay [20] it was > 5010 nM (inactive); in assay [21] it was > 1580 nM (inactive); in assay [22], > 10000 nM (inactive). Besides, the Ki in [23] is 2000 nM (active).

As for `OCC[n+]1c2ccccc2nc2ccc(N3CCOCC3)cc21`, in [24], the AC50 was > 380000 nM (inactive).
